Measured values as given in PMC10552397 (Cell Communication and Signaling : CCS, 2023).
Several values for one entry are separate records, joined by “and”; a condition that tells them apart may be missing. Identical values can stand only once.

Molecular target: GRASP55 (Homo sapiens, UniProt Q9H8Y8)
Experiment: Thermal proteome profiling compound concentration range (TPP-CCR), GRASP55
Format: binding
Set-up: endogenous in cells
Settings: for GORASP2 dose response, average: average of n=1-3; for GORASP2 dose response, fit: value of fitted curve; for EC50: 3 min at 50 °C; for normalized.Reporter.intensity: single replicates n1-n3
Procedure: Adherent cells were washed in the dish once with DPBS and harvested by Trypsin–EDTA (0.25%, Thermo Fisher Scientific, Waltham, MA, USA, #25,200,056) treatment. After addition of 35 mL DPBS, the cells were pelleted by centrifugation (300 rcf, 5 min, 4 °C), and washed twice by re-suspending and pelleting using 45 mL and 1 mL DPBS, respectively, to remove excess trypsin and for transfer into pre-weighed 2 mL Eppendorf tubes to determine the cell pellet wet weights as quality check after centrifugation (300 rcf, 5 min, 4 °C) and complete removal of the supernatant. Cells for TPP-TR were resuspended using 1 mL, and cells for TPP-CCR were resuspended using 0.4 mL ice-cold DPBS, respectively, supplemented with protease inhibitor cocktail (Roche, Basel, Switzerland, #5,892,791,001). […] Cell suspensions were shortly centrifuged (1 s or less) using a benchtop centrifuge to release trapped air and to achieve an even liquid level without pelleting the cells. The samples were then temperature treated by a 7 min pre-incubation at RT, 3 min temperature treatment in the PCR cycler (DNA Engine Tetrad 2, lid temperature 70 °C) at different temperatures (37 °C or 50 °C for TPP-CCR or the temperatures given in Table 2 for TPP-TR) and a 3 min post-incubation at RT in a metal heating block for uniform heat dissipation.
After temperature treatment, samples were supplemented with lysis buffer (final concentrations: 0.36 U/µL benzonase, 1.5 mM MgCl2, 1 mM Na3VO4, 10 mM NaF, 2.5 mM Na4P2O7, 0.8% w/v NP-40) for 1 h on ice. The lysates were cleared from cell debris as well as denatured and precipitated proteins by centrifugation at 20,000 rcf and 4 °C for 30 min. The total protein concentration of the resulting cell extracts containing the fraction of soluble, non-denatured proteins was determined (Pierce 660 nm Protein Assay, BSA as standard). Cell extracts were shock frozen in liquid nitrogen and stored at -80 °C. The three replicates for TPP-TR and TPP-CCR were prepared on consecutive days, respectively. The two (37 °C or 50 °C) x ten (concentrations) x three (replicates) = 60 TPP-CCR samples and two (treatment and control) x ten (temperatures) x three (replicates) = 60 TPP-TR samples were analyzed by LC–MS/MS. GRASP55 was additionally quantified from the TPP-TR samples by immunoblotting as described in the respective section.
For TPP-CCR, SP3 was performed as described with slight modifications to the original protocol using on average 5 µg total protein per sample and resulting in theoretically 5 µg peptides in 22 µL 50 mM triethylammonium bicarbonate per sample. For each of the two (treatment and control) x three (replicates) = six TPP-TR temperature treatment sample sets, the same volume for each of the ten temperature samples was used for SP3 processing, thus, maintaining the information about the temperature dependent non-denatured protein content. This volume was calculated such that the lowest two temperature samples (36.5 °C and 41.2 °C) contained 10 µg total protein on average. The samples were diluted using SDS containing buffer (20 µL final, final concentrations: 7.5% glycerol, 3% SDS, 37.5 mM Tris/HCl pH 7.0) and the proteins were reduced, alkylated, and precipitated on the solid phase as described using adjusted volumes (2 × due to processing 10 µg instead of 5 µg). Volumes for washing of the aggregated proteins on the solid phase and for tryptic digestion were kept unchanged, however, to maintain the maximal total protein to trypsin/Lys-C ratio at 50:1 in the two rounds of digestion (13 h and 4 h), respectively, 2 × 0.2 µg trypsin/Lys-C was used per sample, theoretically resulting in at most about 10 µg peptides in 22 µL 50 mM triethylammonium bicarbonate. […]

CCCCCC1=C/C(=C/c2[nH]c(-c3ccc[nH]3)cc2OC)N=C1C [Prodigiosin, prodigiosin]
GORASP2 dose response, average (37°C, 0.0976562 nM prodigiosin): -0.42 | GORASP2 dose response, fit (37°C, 0.0976562 nM prodigiosin): 0.0663 | GORASP2 dose response, average (37°C, 0.390625 nM prodigiosin): 0.54 | GORASP2 dose response, fit (37°C, 0.390625 nM prodigiosin): 0.10 | GORASP2 dose response, average (37°C, 1.5625 nM prodigiosin): 0.10 | GORASP2 dose response, fit (37°C, 1.5625 nM prodigiosin): 0.16 | GORASP2 dose response, average (37°C, 6.25 nM prodigiosin): 0.08 | GORASP2 dose response, fit (37°C, 6.25 nM prodigiosin): 0.23 | GORASP2 dose response, average (37°C, 25 nM prodigiosin): 0.33 | GORASP2 dose response, fit (37°C, 25 nM prodigiosin): 0.33 | GORASP2 dose response, average (37°C, 100 nM prodigiosin): 0.64 | GORASP2 dose response, fit (37°C, 100 nM prodigiosin): 0.44 | GORASP2 dose response, average (37°C, 400 nM prodigiosin): 0.47 | GORASP2 dose response, fit (37°C, 400 nM prodigiosin): 0.56 | GORASP2 dose response, average (37°C, 1600 nM prodigiosin): 0.85 | GORASP2 dose response, fit (37°C, 1600 nM prodigiosin): 0.68 | GORASP2 dose response, average (37°C, 6400 nM prodigiosin): 0.55 | GORASP2 dose response, fit (37°C, 6400 nM prodigiosin): 0.77 | GORASP2 dose response, average (50°C, 0.0976562 nM prodigiosin): 0.0745 | GORASP2 dose response, fit (50°C, 0.0976562 nM prodigiosin): 0.06 | GORASP2 dose response, average (50°C, 0.390625 nM prodigiosin): 0.13 | GORASP2 dose response, fit (50°C, 0.390625 nM prodigiosin): 0.17 | GORASP2 dose response, average (50°C, 1.5625 nM prodigiosin): 0.40 | GORASP2 dose response, fit (50°C, 1.5625 nM prodigiosin): 0.39 | GORASP2 dose response, average (50°C, 6.25 nM prodigiosin): 0.72 | GORASP2 dose response, fit (50°C, 6.25 nM prodigiosin): 0.68 | GORASP2 dose response, average (50°C, 25 nM prodigiosin): 0.81 | GORASP2 dose response, fit (50°C, 25 nM prodigiosin): 0.87 | GORASP2 dose response, average (50°C, 100 nM prodigiosin): 0.97 | GORASP2 dose response, fit (50°C, 100 nM prodigiosin): 0.96 | GORASP2 dose response, average (50°C, 400 nM prodigiosin): 0.97 | GORASP2 dose response, fit (50°C, 400 nM prodigiosin): 0.99 | GORASP2 dose response, average (50°C, 1600 nM prodigiosin): 1.04 | GORASP2 dose response, fit (50°C, 1600 nM prodigiosin): 1.00 | GORASP2 dose response, average (50°C, 6400 nM prodigiosin): 0.85 | GORASP2 dose response, fit (50°C, 6400 nM prodigiosin): 1.00 | EC50 (EC50 of GRASP55 stabilization, HeLa wt, 6 h): 2.6 nM | diff pseudoR2(50-37°C) (GRASP55/GORASP2): 0.81 | pseudoR2 (dose response curve fit, 37°C) (GRASP55/GORASP2, 37°C): 0.16 | normalized.Reporter.intensity (GRASP55/GORASP2, 37°C, 0.0976562 nM prodigiosin): 0.13 and -0.19 and -1.19 | normalized.Reporter.intensity (GRASP55/GORASP2, 37°C, 0.390625 nM prodigiosin): 0.0349 and 0.46 and 1.11 | normalized.Reporter.intensity (GRASP55/GORASP2, 37°C, 1.5625 nM prodigiosin): 0.45 and -0.0156 and -0.12 | normalized.Reporter.intensity (GRASP55/GORASP2, 37°C, 6.25 nM prodigiosin): 0.55 and 0.11 and -0.42 | normalized.Reporter.intensity (GRASP55/GORASP2, 37°C, 25 nM prodigiosin): 0.93 and 0.24 and -0.19 | normalized.Reporter.intensity (GRASP55/GORASP2, 37°C, 100 nM prodigiosin): 1.03 and 0.10 and 0.80 | normalized.Reporter.intensity (GRASP55/GORASP2, 37°C, 400 nM prodigiosin): 0.81 and 0.51 and 0.08 | normalized.Reporter.intensity (GRASP55/GORASP2, 37°C, 1600 nM prodigiosin): 1.12 and 0.54 and 0.88 | normalized.Reporter.intensity (GRASP55/GORASP2, 37°C, 6400 nM prodigiosin): -0.23 and 0.82 and 1.06 | H (dose response curve fit parameters, 37°C) (GRASP55/GORASP2, 37°C, Hill slope of fit): 0.35 and 0.3479 | pseudoR2 (dose response curve fit, 50°C) (GRASP55/GORASP2, 50°C): 0.97 | normalized.Reporter.intensity (GRASP55/GORASP2, 50°C, 0.0976562 nM prodigiosin): 0.0172 and 0.11 and 0.10 | normalized.Reporter.intensity (GRASP55/GORASP2, 50°C, 0.390625 nM prodigiosin): 0.12 and 0.19 and 0.10 | normalized.Reporter.intensity (GRASP55/GORASP2, 50°C, 1.5625 nM prodigiosin): 0.43 and 0.35 and 0.41 | normalized.Reporter.intensity (GRASP55/GORASP2, 50°C, 6.25 nM prodigiosin): 0.85 and 0.64 and 0.65 | normalized.Reporter.intensity (GRASP55/GORASP2, 50°C, 25 nM prodigiosin): 0.87 and 0.76 and 0.81 | normalized.Reporter.intensity (GRASP55/GORASP2, 50°C, 100 nM prodigiosin): 0.94 and 0.97 and 0.99 | normalized.Reporter.intensity (GRASP55/GORASP2, 50°C, 400 nM prodigiosin): 0.91 and 0.97 and 1.04 | normalized.Reporter.intensity (GRASP55/GORASP2, 50°C, 1600 nM prodigiosin): 1.02 and 1.10 and 1.01 | normalized.Reporter.intensity (GRASP55/GORASP2, 50°C, 6400 nM prodigiosin): 0.82 and 0.89 and 0.84 | H (dose response curve fit parameters, 50°C) (GRASP55/GORASP2, 50°C, Hill slope of fit): 0.84 and 0.8417 | dose response of GRASP55 at 37 °C (abundance control) (HeLa wt, 6 h, 37 °C): no dose response effects | EC50 (pEC50 of GRASP55 stabilization, HeLa wt, 6 h): 2.63 nM
